Reference: US5380740A, “Anti-inflammatory compounds, compositions and method of use thereof” (G. D. Searle & Co., priority 1993, dated 1995)

Columns and labels:
[1] = test system: Human neutrophils; test: Human Neutrophil Degranulation Assay (LTB4-induced myeloperoxidase release); type: cell-based; settings: LTB4 5×10^-8 M; for Relative Potency, Degranulation: potency relative to compound 1 defined as 1.0
Procedure: Neutrophils were purified from venous blood of normal human donors using standard techniques of dextran sedimentation, centrifugation on Ficoll-paque® (Pharmacia) or Histopaque® sterile solution (Sigma) and hypotonic lysis of erythrocytes (Boyum, A., Isolation of Leukocytes from Human Blood: Further Observations. Stand, J. Lab. Clin. Invest., 21 (Suppl. 97): 31, 1968). The purity of isolated neutrophils was >95%.
Neutrophil degranulation was determined by measuring the release of myeloperoxidase activity into the incubation medium. Neutrophils (3×10^6) in 1 ml HBSS solution were preincubated with cytochalasin B(5 μg) at 37° C. for 5 minutes, followed by preincubation with test compounds for 7 minutes. Neutrophils were then incubated for 2 to 20 minutes with LTB4 (5×10^-8 M) to induce degranulation. Following incubation, samples were centrifuged and myeloperoxidase was extracted from the cell pellets by sonication in phosphate buffer containing 0.4% Triton X-100. Triton X-100 was also added to the supernatants to a concentration of 0.4%. The supernatants and the pellet--extracts were then assayed spectrophotometrically for myeloperoxidase activity by determining the rate of decomposition of H2 O2 with o-dianisidine as hydrogen donor as described by Renlund, et al. (Renlund, D. G., MacFarlane, J. L., Christensen, R. D., Lynch, R. E., and Rothstein, G., A Quantitative and sensitive Method for Measurement of Myeloperoxidase, Clinical Research 28:75A, 1980). Myeloperoxidase activity released into the supernatant was expressed as the percent of the average total activity (pellet plus supernatant).

[2] = target: T1, LTB4 receptor (Homo sapiens, UniProt Q15722); test: LTB4 Receptor Binding Assay; settings: potency relative to compound 1 defined as 1.0; (3H) LTB4 0.6×10^-9 M, human neutrophils
T1 construct: endogenous in cells; host or cells: neutrophils purified from venous blood of normal human donors (purity >95%)
T1 sequence (Q15722 whole entry): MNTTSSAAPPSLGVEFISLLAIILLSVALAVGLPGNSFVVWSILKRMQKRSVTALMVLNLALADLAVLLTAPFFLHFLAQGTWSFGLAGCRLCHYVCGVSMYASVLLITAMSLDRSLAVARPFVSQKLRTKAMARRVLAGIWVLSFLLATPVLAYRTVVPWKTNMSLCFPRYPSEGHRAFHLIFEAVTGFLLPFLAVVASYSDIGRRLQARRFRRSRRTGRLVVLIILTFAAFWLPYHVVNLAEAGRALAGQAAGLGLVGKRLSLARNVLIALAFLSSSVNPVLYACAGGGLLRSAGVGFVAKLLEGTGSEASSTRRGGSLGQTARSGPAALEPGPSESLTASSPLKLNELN
Procedure: Neutrophils (4-6×10^6) in 1 ml Hanks' balanced salt solution containing 10 mM HEPES buffer (HBSS), pH 7.4 and 30 μM nordihydroguaiaretic acid were incubated with 0.6×10^-9 M (3H) LTB4 in the presence or absence of test compounds. The incubation was carried out at 0° C. for 45 minutes and terminated by adding 5 ml of ice-cold HBSS followed by rapid filtration of incubation mixture under vacuum through GF/C glass fiber filters. The filters were further washed with 10 ml HBSS and radioactivity was determined. Specific binding was defined as the difference between total binding and nonspecific binding which was not displaced by 10^-7 M unlabeled LTB4. All data refer to specific binding.

[3] = test system: Human neutrophils; test: Modified Boyden Chamber Chemotaxis (LTB4-induced); type: cell-based; settings: 3×10^-8 M LTB4; for Relative Potency, Chemotaxis: potency relative to compound 1 defined as 1.0
Procedure: Human neutrophils were isolated from citrated peripheral blood using standard techniques of dextran sedimentation, followed by centrifugation on Histopaque® sterile solution (Sigma) or Ficoll-paque® (Pharmacia) and hypotonic lysis of erythrocytes. A final cell suspension of 3.4×10^6 neutrophils/ml of HEPES-buffered Hanks balanced salt solution (HBSS, pH 7.3) was added to the upper well (0.8 ml) of a modified Boyden chamber (blind well). […] Percent inhibition was calculated from cell counts corrected for random migration by subtracting the mean of the HBSS control.

Compound: C=CCc1c(OCCCOc2ccc3c(c2CCC)OC(c2nnn[nH]2)CC3)ccc(C(C)=O)c1OC (centres unmarked)
- Relative Potency, Degranulation [1]: 38
- Relative Potency, LTB4 Receptor Binding [2]: 0.8
- Relative Potency, Chemotaxis [3]: 9

Compound: CCCc1c(OCCCOc2ccc(C(C)=O)c(OC)c2CC2CC2)ccc2c1OC(c1nnn[nH]1)CC2 (centres unmarked)
- Relative Potency, Degranulation [1]: 75
- Relative Potency, LTB4 Receptor Binding [2]: 2
- Relative Potency, Chemotaxis [3]: 22.5

Compound: CCCc1c(OCCCOc2ccc(C(C)=O)c(OC)c2CCC)ccc2c1OC(C(=O)O)CC2 (centres unmarked) [Compound 1, 7-[3,(4-acetyl-3-methoxy-2-propylphenoxy)propoxy]-3,4-dihydro-8-propyl-2H-1-benzopyran-2-carboxylic acid, reference compound]
- IC50 ([1]; Homo sapiens, Neutrophil): 1.5 µM
- IC50 ([3]; Homo sapiens, Neutrophil): 1.8 µM
